How the values were obtained:
[1] = target: Ba/F3 FIG-ROS G1971E cells (Homo sapiens, UniProt P08922, G1971E, cells depend on it); assay: Cell viability assay, Ba/F3 FIG-ROS G1971E; assay type: cell-based; details: Table 3, Ba/F3 FIG-ROS G1971E; nM; read-out: IC50 (the source's name)
Method: (§1) Cell lines were distributed in 96-well plates and incubated with the indicated concentrations of inhibitor for 72 hours. […] Ba/F3 cell lines were plated at 4×10^3 cells/well. HCC78 and mCC cell lines were plated at 1.5×10^3 cells/well. All cell types were seeded in a final volume of 80 microliters. A 20 microliter volume of five-fold concentrated inhibitor media was added. Cell proliferation was measured using a […] viability assay (CellTiter96 Aqueous One® Solution; Promega). A BioTek Synergy 2® plate reader was used to read the absorbance at 490 nm at 30 minutes and 1 hour after addition of MTS. To facilitate comparison between experiments, the raw MTS absorbance of vehicle (0.1% DMSO) treated cells was set to 1 and absorbance from inhibitor treated wells was normalized to the vehicle treated value. […] Data were normalized using Microsoft Excel® and further non-linear regression curve fit analysis of the normalized data for determination of IC50 was performed using Graphpad Prism® software.
(§2) The FIG-ROS-S fusion gene was synthesized using the GeneArt® service. FIG-ROS-S is denoted as FIG-ROS herein.

[2] = target: Ba/F3 FIG-ROS L1947R cells (Homo sapiens, UniProt P08922, L1947R, cells depend on it); assay: Cell viability assay, Ba/F3 FIG-ROS L1947R; assay type: cell-based; details: Table 3, Ba/F3 FIG-ROS L1947R; nM; read-out: IC50 (the source's name)
Method: as §1, §2

FIG-ROS [3] = target: T1, FIG-ROS (Homo sapiens, UniProt P08922); assay: Immunoblot of Ba/F3 FIG-ROS lysates; assay type: cell-based; parameters: expressed in transfected cells; host or cells: Ba/F3 (A14), retroviral pMSCV-IRES-GFP; the other entry of the earlier key: GOPC (Q9HD26, Golgi-associated PDZ and coiled-coil motif-containing protein); details: Ba/F3 FIG-ROS cells, increasing amounts, immunoblot FIG. 1C
Method: FIG. 1C is an image of an immunoblot of lysates of Ba/F3 FIG-ROS and Ba/F3 SLC-ROS and the indicated downstream effectors after treatment with the indicated compounds. Images shown are representative of three independent experiments.
Ba/F3 FIG-ROS, Ba/F3 SLC-ROS, HCC78 and mCC cell lines were treated with the indicated concentration of inhibitors for 1-2 hours. […] The protein content of the cell lysates was determined and lysates were either used for immunoprecipitation where indicated or extracted with SDS Sample buffer for 15 minutes at 80° C. Proteins were transferred to Immobilon-FL membranes and immunoblotted with antibodies specific for phospho-ROS1 (Cell Signaling Technology (CST) #3078), total ROS1 (CST #3266), phopsho-Shp2 (CST #3751), total Shpt (CST #3752), phospho-Stat3 (CST #9145), total Stat3 (CST #4904), phospho-Erk1/2 (CST #9101), total Erk2 (Santa Cruz #SC-1647), phospho-S6 (CST #4858), total S6 (CST #2216), phospho-Src (CST #2105), total Src (CST #2110), α-tubulin (Sigma T6199), or β-actin (Sigma A1978) as indicated. Images of the blots were generated by the LI-COR Odyssey® imaging system, following the manufacturer's protocol for immunoblot detection with use of IR-dye conjugated secondary antibodies.

FIG-ROS [4] = target: T1, FIG-ROS; assay: Immunoblot of NIH3T3 FIG-ROS lysates; assay type: cell-based; parameters: expressed in transfected cells; host or cells: Ba/F3 (A14) and NIH3T3 (A24), retroviral pMSCV-IRES-GFP; the other entry of the earlier key: GOPC (Q9HD26, Golgi-associated PDZ and coiled-coil motif-containing protein); details: NIH3T3 FIG-ROS cells, 1 hour, at lower doses than crizotinib
Method: The parental Ba/F3 cell line was cultured in RPMI 1640 medium with 10% FBS, L-glutamine, penicillin/streptomycin and 15% WEHI-conditioned media. Ba/F3 cell lines were maintained at densities of 0.5×10^6 to 1.5×10^6 per ml of media. FIG-ROS and SLC-ROS Ba/F3 lines were created by infecting the parental Ba/F3 with retrovirus expressing either human FIG-ROS-S (indicated FIG-ROS herein) or SLC-ROS-S (indicated SLC-ROS herein). Stable transfectant lines were sorted for GFP expression on a FACS Aria® flow cytometer. Cells were counted daily using Guava ViaCount® reagent and Guava Personal Cell Analysis® flow cytometer. […] Early passage NIH3T3 cells were infected with retrovirus expressing either FIG-ROS or SLC-ROS and sorted for GFP expression as described above for Ba/F3 cells. HCC78 cells were cultured in RPMI 1640 medium with 10% FBS, L-glutamine, and penicillin/streptomycin. This media is referred to as RPMI-10% FBS herein.

[5] = system: shPten murine cholangiocarcinoma tumor cells; assay: cells; details: Mus musculus, read-out: IC50 cell growth
Method: (§3) Hepatoblasts of the genotype AlbCre^+/−; Isl Kras^G12D+/−; p53^R172H/loxp were isolated from ED14.5 mouse embryos and retrovirally transduced with either the FIG-ROS fusion, turbo RFP or a short hairpin RNA against Pten (shPten.1522). At 48 hours following transduction, 1×10^6 cells were resuspended in 25 μl Matrigel and injected sub-capsular into the livers of immune-deficient mice. Upon tumor formation, tumors were explanted and subjected to collagenase digestion. Digests were plated onto gelatin-coated plates. Tumor cells were enriched by either differential trypsinization or cell sorting. […] These four cell lines were further cultured and maintained in DMEM-High glucose medium supplemented with 10% FCS, L-glutamine and penicillin/streptomycin.
as §1
(§4) To directly assess inhibition of FIG-ROS phosphorylation, immunoblot analyses of lysates from vehicle or inhibitor-treated cells were performed.

[6] = system: FIG-ROS murine cholangiocarcinoma tumor cells; assay: cells; details: Mus musculus, read-out: IC50 cell growth
Method: as §3, §1, §4

T1 sequence (P08922 with tags, fused parts or gaps): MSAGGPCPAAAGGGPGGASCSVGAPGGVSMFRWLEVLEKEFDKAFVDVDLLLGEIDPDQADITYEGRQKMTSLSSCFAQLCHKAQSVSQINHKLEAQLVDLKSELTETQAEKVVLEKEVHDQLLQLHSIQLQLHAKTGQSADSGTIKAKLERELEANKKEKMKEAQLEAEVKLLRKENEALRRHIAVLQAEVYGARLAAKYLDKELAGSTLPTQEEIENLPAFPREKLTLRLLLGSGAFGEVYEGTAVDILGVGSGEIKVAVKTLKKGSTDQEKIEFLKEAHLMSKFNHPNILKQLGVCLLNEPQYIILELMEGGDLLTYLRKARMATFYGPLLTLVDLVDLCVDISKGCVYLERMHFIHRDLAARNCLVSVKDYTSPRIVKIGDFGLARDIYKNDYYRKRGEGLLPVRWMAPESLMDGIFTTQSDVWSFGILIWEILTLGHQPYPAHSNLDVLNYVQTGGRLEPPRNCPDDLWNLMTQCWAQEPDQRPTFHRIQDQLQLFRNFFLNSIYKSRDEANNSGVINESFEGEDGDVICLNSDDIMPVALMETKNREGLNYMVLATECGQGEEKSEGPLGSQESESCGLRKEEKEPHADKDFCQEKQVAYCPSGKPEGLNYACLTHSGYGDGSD
Chain of Ba/F3 FIG-ROS L1947R cells (P08922 whole entry L1947R): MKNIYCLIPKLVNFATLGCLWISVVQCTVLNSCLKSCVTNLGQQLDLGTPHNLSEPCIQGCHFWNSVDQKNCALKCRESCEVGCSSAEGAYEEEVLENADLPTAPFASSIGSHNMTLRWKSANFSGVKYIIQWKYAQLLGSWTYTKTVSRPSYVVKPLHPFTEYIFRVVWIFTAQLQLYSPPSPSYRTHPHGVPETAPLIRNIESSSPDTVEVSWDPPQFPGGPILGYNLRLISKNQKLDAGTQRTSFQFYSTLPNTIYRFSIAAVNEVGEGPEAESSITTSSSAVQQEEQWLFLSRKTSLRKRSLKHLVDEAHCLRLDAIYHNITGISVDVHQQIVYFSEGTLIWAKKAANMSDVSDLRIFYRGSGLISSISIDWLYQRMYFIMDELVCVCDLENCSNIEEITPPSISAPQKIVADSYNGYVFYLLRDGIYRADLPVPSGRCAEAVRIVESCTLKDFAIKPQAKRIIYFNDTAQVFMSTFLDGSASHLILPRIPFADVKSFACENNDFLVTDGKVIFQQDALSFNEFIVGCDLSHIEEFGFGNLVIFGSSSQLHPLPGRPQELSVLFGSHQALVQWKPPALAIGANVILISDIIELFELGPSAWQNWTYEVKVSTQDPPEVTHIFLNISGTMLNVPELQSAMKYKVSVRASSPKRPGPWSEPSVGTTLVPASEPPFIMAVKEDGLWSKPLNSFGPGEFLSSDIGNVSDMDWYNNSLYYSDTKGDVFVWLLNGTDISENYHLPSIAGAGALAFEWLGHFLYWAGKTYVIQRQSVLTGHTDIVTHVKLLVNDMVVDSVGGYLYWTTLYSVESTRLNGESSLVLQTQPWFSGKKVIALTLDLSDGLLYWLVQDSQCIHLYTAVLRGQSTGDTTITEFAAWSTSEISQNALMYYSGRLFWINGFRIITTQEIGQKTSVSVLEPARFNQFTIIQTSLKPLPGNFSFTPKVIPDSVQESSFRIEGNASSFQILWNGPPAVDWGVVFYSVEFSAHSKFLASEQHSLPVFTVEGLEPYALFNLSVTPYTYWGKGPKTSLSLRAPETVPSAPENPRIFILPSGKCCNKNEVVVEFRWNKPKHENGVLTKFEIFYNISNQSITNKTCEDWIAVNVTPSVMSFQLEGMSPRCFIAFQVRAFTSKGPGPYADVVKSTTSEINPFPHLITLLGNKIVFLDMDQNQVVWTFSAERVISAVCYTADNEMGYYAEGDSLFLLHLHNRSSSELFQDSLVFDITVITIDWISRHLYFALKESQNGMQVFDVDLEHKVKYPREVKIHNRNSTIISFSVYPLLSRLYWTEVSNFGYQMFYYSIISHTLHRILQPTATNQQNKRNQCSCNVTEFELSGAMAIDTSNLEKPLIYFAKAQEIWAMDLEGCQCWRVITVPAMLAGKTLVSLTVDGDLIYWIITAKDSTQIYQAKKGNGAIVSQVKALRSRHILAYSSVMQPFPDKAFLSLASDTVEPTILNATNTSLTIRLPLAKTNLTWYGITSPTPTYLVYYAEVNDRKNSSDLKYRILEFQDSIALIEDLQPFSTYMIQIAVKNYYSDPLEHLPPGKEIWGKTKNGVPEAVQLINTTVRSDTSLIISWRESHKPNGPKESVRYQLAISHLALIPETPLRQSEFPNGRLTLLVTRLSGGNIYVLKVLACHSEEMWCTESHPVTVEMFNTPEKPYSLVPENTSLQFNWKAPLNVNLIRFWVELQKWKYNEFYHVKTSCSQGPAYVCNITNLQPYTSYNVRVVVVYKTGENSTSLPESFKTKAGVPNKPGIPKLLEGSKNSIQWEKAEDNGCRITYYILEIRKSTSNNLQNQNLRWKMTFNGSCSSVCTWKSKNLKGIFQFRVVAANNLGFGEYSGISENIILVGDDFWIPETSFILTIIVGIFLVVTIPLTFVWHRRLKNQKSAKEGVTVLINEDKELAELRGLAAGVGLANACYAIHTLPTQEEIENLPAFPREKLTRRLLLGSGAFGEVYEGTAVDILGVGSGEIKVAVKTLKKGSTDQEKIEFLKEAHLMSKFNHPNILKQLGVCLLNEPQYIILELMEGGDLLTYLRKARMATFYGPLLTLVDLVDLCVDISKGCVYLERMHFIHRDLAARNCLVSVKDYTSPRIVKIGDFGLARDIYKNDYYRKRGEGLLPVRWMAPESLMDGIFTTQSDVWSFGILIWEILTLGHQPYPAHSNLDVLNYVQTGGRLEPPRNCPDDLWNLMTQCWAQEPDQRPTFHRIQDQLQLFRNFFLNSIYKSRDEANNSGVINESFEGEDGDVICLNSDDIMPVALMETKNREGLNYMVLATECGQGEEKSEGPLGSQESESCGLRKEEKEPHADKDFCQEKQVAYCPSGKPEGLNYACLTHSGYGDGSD
Chain of Ba/F3 FIG-ROS G1971E cells (P08922 whole entry G1971E): as the sequence (P08922 whole entry L1947R) above, with R1947L, G1971E counted along it

SMILES: COc1cc2c(Oc3ccc(NC(=O)C4(C(=O)Nc5ccc(F)cc5)CC4)cc3F)ccnc2cc1OCCCN1CCOCC1 [foretinib, N1′-[3-fluoro-4-[[6-methoxy-7-(3-morpholinopropoxy)-4-quinolyl]oxy]phenyl]-N1-(4-fluorophenyl)cyclopropane-1,1-dicarboxamide]
- GI50 [1]: 8.69 nM
- GI50 [2]: 17.9 nM
- autophosphorylation of FIG-ROS and ROS1-driven signaling (phospho-Shp2, phospho-ERK1/2) (FIG-ROS [3]): dose dependent decrease
- FIG-ROS phosphorylation (FIG-ROS [4]): strongly suppressed
- IC50 [5]: > 2000 nM
- IC50 [6]: 300 nM

— patent US20140243332A1, “METHODS OF TREATING CANCERS CHARACTERIZED BY ABERRENT ROS1 ACTIVITY” (Oregon Health & Science University, priority 2013, published 2014)
